Data published in US10800772B2 (Gilead Sciences, Inc., priority 2016, dated 2020).
Where two headings read alike, the source gives them in different places.

Columns and labels:
in vitro = details: human, microsomes
HIV-IIIb IN T174I BT = assay: Antiviral assay in MT4 cells, HIV-IIIb IN T174I BT virus (from viral breakthrough); type: cell-based, HIV-1; details: Human immunodeficiency virus 1, IIIB, MT4, 120 h, read-out: T174I BT EC50, MT4 cells, HIV-IIIb IN T174I BT (viral breakthrough), 5 days, CellTiter-Glo
Method in brief: (§1)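 Each EC50 is the compound concentration that reduced CellTiter-Glo luminescence by 50% after 5 days of culture of HIV-IIIb-infected MT4 cells. Infection was at 0.004 m.o.i. with 3 h pre-incubation. Testing used 10 concentrations in quadruplicate.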

HIV-IIIb IN T174I DE = assay: Antiviral assay in MT4 cells, HIV-IIIb IN T174I DE virus (from dose escalation passaging); type: cell-based, HIV-1; details: Human immunodeficiency virus 1, IIIB, MT4, 120 h, read-out: T174I DE EC50, MT4 cells, HIV-IIIb IN T174I DE (dose escalation), 5 days, CellTiter-Glo
Method in brief: as §1

HIV-IIIb (wildtype) = assay: Antiviral assay in MT4 cells, HIV-IIIb wildtype; type: cell-based, HIV-1; details: read-out: WT EC50
Method in brief: as §1

[1] = Hum MS stability (human microsomal stability half-life); details: human microsomes
[2] = Human immunodeficiency virus 1, IIIB, MT4, 120 h

SMILES	half-life (in vitro) [h]	EC50 (HIV-IIIb IN T174I BT) [µM]	EC50 (HIV-IIIb IN T174I DE) [µM]	EC50 (HIV-IIIb (wildtype); Human immunodeficiency virus 1, 120 h, MT4 cells, HIV-IIIb wildtype, 5 days, CellTiter-Glo) [µM]	half-life [1] [h]	EC50 (HIV-IIIb (wildtype); [2]) [µM]
Cc1cc2nc(-c3ccc4c(c3)c(C3CCN(C5CC5)CC3)nn4C)sc2c(-c2ccc(Cl)cc2)c1[C@H](OC(C)(C)C)C(=O)O [Compound 128, (S)-2-(tert-butoxy)-2-(7-(4-chloro-phenyl)-2-(3-(1-cyclopropylpiperidin-4-yl)-1-methyl-1H-indazol-5-yl)-5-methylbenzo[d]thiazol-6-yl) acetic acid]	4.03	0.292	0.511	0.004	–	–
CC(=O)N1CC[C@H](N2CCC(c3nn(C)c4ccc(-c5nc6cc(C)c([C@H](OC(C)(C)C)C(=O)O)c(-c7ccc(Cl)cc7)c6s5)nc34)CC2)C1 [Compound 170, (S)-2-(2-(3-(1-((S)-1-acetyl-pyrrolidin-3-yl)piperidin-4-yl)-1-methyl-1H-pyrazolo[4,3-b]pyridin-5-yl)-7-(4-chlorophenyl)-5-methylbenzo [d]thiazol-6-yl)-2-(tert-butoxy) acetic acid]	–	0.057	0.112	–	0.533	0.002
Cc1cc2nc(-c3ccc4c(c3)c(C3CCOCC3)nn4C)sc2c(-c2ccc(Cl)cc2)c1[C@H](OC(C)(C)C)C(=O)O [Compound 19, (S)-2-(tert-butoxy)-2-(7-(4-chlorophenyl)-5-methyl-2-(1-methyl-3-(tetrahydro-2H-pyran-4-yl)-1H-indazol-5-yl)benzo[d]thiazol-6-yl)acetic Acid]	–	1.17	2.78	–	4.15	0.012
COCCN1CCCC(c2nn(C)c3ccc(-c4nc5cc(C)c([C@H](OC(C)(C)C)C(=O)O)c(-c6ccc(Cl)cc6)c5s4)cc23)C1 (stereo partly drawn) [Compound 77, (2S)-2-(tert-butoxy)-2-(7-(4-chlorophenyl)-2-(3-(1-(2-methoxyethyl)piperidin-3-yl)-1-methyl-1H-indazol-5-yl)-5-methylbenzo[d]thiazol-6-yl)acetic acid]	–	1.81	3.27	–	2.17	0.009
Cc1cc2nc(-c3ccc4c(c3)c(N3CC(C)(C)N(C)C3=O)nn4C)sc2c(-c2ccc(Cl)cc2)c1[C@H](OC(C)(C)C)C(=O)O [Compound 122, (S)-2-(tert-butoxy)-2-(7-(4-chlorophenyl)-5-methyl-2-(1-methyl-3-(3,4,4-trimethyl-2-oxoimidazolidin-1-yl)-1H-indazol-5-yl)benzo[d]thiazol-6-yl)acetic acid]	–	1.44	3.81	–	4.48	0.014
CC(=O)N1CC(N2CCC(c3nn(C)c4ccc(-c5nc6cc(C)c([C@H](OC(C)(C)C)C(=O)O)c(-c7ccc(Cl)cc7)c6s5)nc34)CC2)C1 [Compound 185, (S)-2-(2-(3-(1-(1-acetylazetidin-3-yl)piperidin-4-yl)-1-methyl-1H-pyrazolo[4,3-b]pyridin-5-yl)-7-(4-chlorophenyl)-5-methylbenzo [d]thiazol-6-yl)-2-(tert-butoxy) acetic acid]	–	0.035	0.066	–	0.6	0.001
